According to PubChem BioAssay (NCI):
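Grown in 96-well plates, cells were treated for 48 hours with each compound at five concentrations. Insufficient inhibition: endpoint recorded as highest concentration tested. The concentration for 50% growth inhibition is given as GI50. TGI: concentration producing complete growth inhibition.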

Experiments:
Assay in all cases: NCI tumour cell line growth inhibition, 48 h
786-0 renal = test system: 786-0 renal
ACHN renal = test system: ACHN renal
IGROV1 ovarian = test system: IGROV1 ovarian
MOLT-4 leukemia = test system: MOLT-4 leukemia
NCI-H226 lung = test system: NCI-H226 lung
NCI-H460 lung = test system: NCI-H460 lung
SF-539 CNS = test system: SF-539 CNS
SNB-75 CNS = test system: SNB-75 CNS
UACC-62 melanoma = test system: UACC-62 melanoma
SR leukemia = test system: SR leukemia

O=S(=O)(C/C(=N\O)c1ccccc1)c1ccccc1
TGI (786-0 renal): > 100 µM
TGI (ACHN renal): > 100 µM
TGI (IGROV1 ovarian): > 100 µM
TGI (MOLT-4 leukemia): > 100 µM
TGI (NCI-H226 lung): > 100 µM
TGI (NCI-H460 lung): > 100 µM
TGI (SF-539 CNS): > 100 µM
TGI (SNB-75 CNS): > 100 µM
TGI (UACC-62 melanoma): > 100 µM

CCCNc1nc2ccccc2c2c1S(=O)(=O)c1ccc(Cl)cc1C2=O
GI50 (786-0 renal): 1.7 µM
TGI (786-0 renal): > 50 µM
GI50 (IGROV1 ovarian): 1.46 µM
TGI (IGROV1 ovarian): > 50 µM
GI50 (MOLT-4 leukemia): 1.54 µM
TGI (MOLT-4 leukemia): > 50 µM
GI50 (NCI-H226 lung): 1.51 µM
TGI (NCI-H226 lung): > 50 µM
GI50 (NCI-H460 lung): 1.3 µM
TGI (NCI-H460 lung): 4.47 µM
GI50 (SF-539 CNS): 1.26 µM
TGI (SF-539 CNS): 3.63 µM
GI50 (SR leukemia): 0.79 µM
TGI (SR leukemia): > 50 µM
GI50 (UACC-62 melanoma): 1.28 µM
TGI (UACC-62 melanoma): > 50 µM

CNC(=O)OCC1C2=C(C(=O)C(C)=C(N)C2=O)N2CC3C(N3C)C12OC (stereo not given)
TGI (786-0 renal): 21.2 µM
TGI (ACHN renal): 26.7 µM
TGI (IGROV1 ovarian): 26.1 µM
TGI (MOLT-4 leukemia): 36.9 µM
TGI (NCI-H226 lung): > 100 µM
TGI (NCI-H460 lung): 10 µM
TGI (SF-539 CNS): 87.5 µM
TGI (SR leukemia): > 100 µM
TGI (UACC-62 melanoma): 22.2 µM

CCN(CC)CCOc1ccc(C(=O)/C=C\c2ccc(Cl)cc2Cl)cc1
GI50 (786-0 renal): 6.44 µM
TGI (786-0 renal): 20.3 µM
GI50 (ACHN renal): 4.73 µM
TGI (ACHN renal): 17.8 µM
GI50 (IGROV1 ovarian): 4.63 µM
TGI (IGROV1 ovarian): 22.4 µM
GI50 (NCI-H226 lung): 11.3 µM
TGI (NCI-H226 lung): 26.6 µM
GI50 (NCI-H460 lung): 11.1 µM
TGI (NCI-H460 lung): 26.1 µM
GI50 (SF-539 CNS): 4.05 µM
TGI (SF-539 CNS): 16.4 µM
GI50 (SNB-75 CNS): 2.53 µM
TGI (SNB-75 CNS): 12.1 µM
GI50 (SR leukemia): 1.69 µM
TGI (SR leukemia): 5.34 µM
GI50 (UACC-62 melanoma): 2.08 µM
TGI (UACC-62 melanoma): 4.71 µM

O=[N+]([O-])c1ccc(Cl)cc1C1SCc2nc3ccccc3n21 (stereo not given)
TGI (786-0 renal): > 100 µM
TGI (ACHN renal): 27.4 µM
TGI (IGROV1 ovarian): > 100 µM
TGI (MOLT-4 leukemia): > 100 µM
TGI (NCI-H460 lung): 23.4 µM
TGI (SF-539 CNS): > 100 µM
TGI (SNB-75 CNS): 70.7 µM
TGI (UACC-62 melanoma): > 100 µM

Nc1n[nH]c(CCc2nc(N)n[nH]2)n1
TGI (786-0 renal): > 100 µM
TGI (ACHN renal): > 100 µM
TGI (IGROV1 ovarian): > 100 µM
TGI (MOLT-4 leukemia): > 100 µM
TGI (NCI-H226 lung): > 100 µM
TGI (NCI-H460 lung): > 100 µM
TGI (SF-539 CNS): > 100 µM
TGI (SNB-75 CNS): > 100 µM
TGI (UACC-62 melanoma): > 100 µM

O=C(Nc1ccc(Cl)c(Cl)c1)OCCN1c2ccccc2Sc2ccccc21
TGI (786-0 renal): > 10 µM
TGI (ACHN renal): > 10 µM
TGI (IGROV1 ovarian): > 10 µM
TGI (MOLT-4 leukemia): > 10 µM
TGI (SF-539 CNS): > 10 µM
TGI (SNB-75 CNS): > 10 µM
TGI (SR leukemia): > 10 µM
TGI (UACC-62 melanoma): > 10 µM

COc1cc2c3c(n(CCCN=[N+]=[N-])c(=O)c2cc1OC)-c1ccc(N(C)C)cc1C3=O
GI50 (786-0 renal): > 100 µM
TGI (786-0 renal): > 100 µM
GI50 (ACHN renal): > 100 µM
TGI (ACHN renal): > 100 µM
GI50 (IGROV1 ovarian): > 100 µM
TGI (IGROV1 ovarian): > 100 µM
GI50 (MOLT-4 leukemia): > 100 µM
TGI (MOLT-4 leukemia): > 100 µM
GI50 (NCI-H226 lung): > 100 µM
TGI (NCI-H226 lung): > 100 µM
GI50 (NCI-H460 lung): > 100 µM
TGI (NCI-H460 lung): > 100 µM
GI50 (SF-539 CNS): > 100 µM
TGI (SF-539 CNS): > 100 µM
GI50 (SNB-75 CNS): 55.9 µM
TGI (SNB-75 CNS): > 100 µM
GI50 (UACC-62 melanoma): > 100 µM
TGI (UACC-62 melanoma): > 100 µM

CCN(CC)CCSCCCNc1c2ccc(Cl)cc2nc2ccc(OC)cc12
GI50 (786-0 renal): 1.12 µM
TGI (786-0 renal): 2.43 µM
GI50 (ACHN renal): 0.719 µM
TGI (ACHN renal): 3.05 µM
GI50 (IGROV1 ovarian): 1.56 µM
TGI (IGROV1 ovarian): 4.74 µM
GI50 (MOLT-4 leukemia): 0.435 µM
TGI (MOLT-4 leukemia): 3.94 µM
GI50 (NCI-H460 lung): 0.383 µM
TGI (NCI-H460 lung): 1.58 µM
GI50 (SF-539 CNS): 1.4 µM
TGI (SF-539 CNS): 2.97 µM
GI50 (SNB-75 CNS): 1.28 µM
TGI (SNB-75 CNS): 2.72 µM
GI50 (SR leukemia): 0.976 µM
TGI (SR leukemia): 4.84 µM
GI50 (UACC-62 melanoma): 1.93 µM
TGI (UACC-62 melanoma): 3.87 µM

O=C1CC(c2ccc(Cl)cc2)Oc2ccccc21 (stereo not given)
TGI (786-0 renal): 32.4 µM
TGI (ACHN renal): > 100 µM
TGI (IGROV1 ovarian): 40.8 µM
TGI (NCI-H226 lung): 33.6 µM
TGI (NCI-H460 lung): 45.3 µM
TGI (SF-539 CNS): 26.1 µM
TGI (SNB-75 CNS): 50.1 µM
TGI (SR leukemia): 28 µM
TGI (UACC-62 melanoma): 49.8 µM

COc1ccc(OC)c(Nc2nc(-c3c(C)nc4sccn34)cs2)c1
GI50 (786-0 renal): 32.3 µM
TGI (786-0 renal): > 100 µM
GI50 (ACHN renal): 38.6 µM
TGI (ACHN renal): > 100 µM
GI50 (IGROV1 ovarian): 23.2 µM
TGI (IGROV1 ovarian): > 100 µM
GI50 (MOLT-4 leukemia): > 100 µM
TGI (MOLT-4 leukemia): > 100 µM
GI50 (NCI-H226 lung): 19.2 µM
TGI (NCI-H226 lung): > 100 µM
GI50 (NCI-H460 lung): > 100 µM
TGI (NCI-H460 lung): > 100 µM
GI50 (SF-539 CNS): 48.8 µM
TGI (SF-539 CNS): > 100 µM
GI50 (SNB-75 CNS): 3.38 µM
TGI (SNB-75 CNS): 33.7 µM
GI50 (UACC-62 melanoma): 51.8 µM
TGI (UACC-62 melanoma): > 100 µM

COC(=O)CCC(=O)NC1C2CC3CC(C2)CC1C3 (stereo not given)
TGI (786-0 renal): > 100 µM
TGI (ACHN renal): > 100 µM
TGI (IGROV1 ovarian): > 100 µM
TGI (MOLT-4 leukemia): > 100 µM
TGI (NCI-H460 lung): > 100 µM
TGI (SF-539 CNS): > 100 µM
TGI (SNB-75 CNS): > 95.4 µM
TGI (UACC-62 melanoma): > 100 µM

Cc1cccc(Nc2cnc(N)nc2N)c1
TGI (786-0 renal): > 100 µM
TGI (ACHN renal): > 100 µM
TGI (IGROV1 ovarian): > 100 µM
TGI (MOLT-4 leukemia): > 100 µM
TGI (NCI-H226 lung): > 100 µM
TGI (SF-539 CNS): > 100 µM
TGI (SNB-75 CNS): > 100 µM
TGI (UACC-62 melanoma): > 100 µM

CN1C(Cl)=NS(=O)(=O)c2ccccc21
TGI (786-0 renal): > 100 µM
TGI (ACHN renal): > 100 µM
TGI (IGROV1 ovarian): > 100 µM
TGI (MOLT-4 leukemia): > 100 µM
TGI (NCI-H226 lung): > 100 µM
TGI (NCI-H460 lung): > 100 µM
TGI (SF-539 CNS): > 100 µM
TGI (SR leukemia): > 100 µM
TGI (UACC-62 melanoma): > 100 µM

O=C(O)C1=C(C(=O)Nc2ccc(NC(=O)C3=C(C(=O)O)C4C=CC3C4)cc2)C2C=CC1C2
TGI (786-0 renal): > 100 µM
TGI (ACHN renal): > 100 µM
TGI (IGROV1 ovarian): > 100 µM
TGI (MOLT-4 leukemia): > 100 µM
TGI (NCI-H460 lung): > 100 µM
TGI (SF-539 CNS): > 100 µM
TGI (SNB-75 CNS): > 100 µM
TGI (SR leukemia): > 100 µM
TGI (UACC-62 melanoma): > 100 µM

c1ccc(CNc2nc(Nc3ccccc3)nc3ccccc23)cc1
GI50 (786-0 renal): 1.66 µM
TGI (786-0 renal): 3.12 µM
GI50 (ACHN renal): 1.87 µM
TGI (ACHN renal): 4.16 µM
GI50 (IGROV1 ovarian): 2.59 µM
TGI (IGROV1 ovarian): 7.44 µM
GI50 (MOLT-4 leukemia): 2.21 µM
TGI (MOLT-4 leukemia): 5.37 µM
GI50 (NCI-H226 lung): 2.26 µM
TGI (NCI-H226 lung): 11.6 µM
GI50 (SF-539 CNS): 1.69 µM
TGI (SF-539 CNS): 3.14 µM
GI50 (SNB-75 CNS): 1.93 µM
TGI (SNB-75 CNS): 6.5 µM
GI50 (SR leukemia): 2.28 µM
TGI (SR leukemia): 6.07 µM
GI50 (UACC-62 melanoma): 1.48 µM
TGI (UACC-62 melanoma): 2.95 µM

CC12Oc3ccc4ccccc4c3CC1Cc1c(ccc3ccccc13)O2 (stereo not given)
TGI (786-0 renal): > 100 µM
TGI (ACHN renal): > 100 µM
TGI (NCI-H226 lung): > 100 µM
TGI (NCI-H460 lung): > 100 µM
TGI (SF-539 CNS): > 100 µM
TGI (SNB-75 CNS): 41.3 µM

Cc1cc(OCc2nnc3n2N=C(c2ccc(Cl)cc2Cl)CS3)ccc1Cl
GI50 (786-0 renal): > 100 µM
TGI (786-0 renal): > 100 µM
GI50 (ACHN renal): 45.4 µM
TGI (ACHN renal): > 100 µM
GI50 (IGROV1 ovarian): 52.3 µM
TGI (IGROV1 ovarian): > 100 µM
GI50 (MOLT-4 leukemia): 47.7 µM
TGI (MOLT-4 leukemia): > 100 µM
GI50 (NCI-H226 lung): 43.6 µM
TGI (NCI-H226 lung): > 100 µM
GI50 (NCI-H460 lung): 62.8 µM
TGI (NCI-H460 lung): > 100 µM
GI50 (SF-539 CNS): > 100 µM
TGI (SF-539 CNS): > 100 µM
GI50 (SR leukemia): 43.3 µM
TGI (SR leukemia): > 100 µM
GI50 (UACC-62 melanoma): 34.4 µM
TGI (UACC-62 melanoma): > 100 µM

c1ccc2c(c1)C1=NCCN1c1ccccc1-2
TGI (786-0 renal): 10 µM
TGI (ACHN renal): 7.36 µM
TGI (IGROV1 ovarian): 17.2 µM
TGI (MOLT-4 leukemia): 8.99 µM
TGI (NCI-H460 lung): 4 µM
TGI (SF-539 CNS): 9.69 µM
TGI (SNB-75 CNS): 14.4 µM
TGI (SR leukemia): 2.41 µM
TGI (UACC-62 melanoma): 13 µM
